Columns and labels:
Type in all cases: biochemical
DYRK1A = DYRK1A (Homo sapiens, UniProt Q13627); test: cell-free Z'-LYTE FRET kinase assay, dose-response; ATP competition
[1] = target: cyclin-dependent kinase 2 (CDK2) (Homo sapiens, UniProt P24941); test: kinase panel ([…] human kinases), […] inhibition at […]
CDC-like kinase 2 (CLK2) = CDC-like kinase 2 (CLK2) (Homo sapiens, UniProt P49760); test: kinase panel ([…] human kinases), […] inhibition at […]
[2] = target: fibroblast growth factor receptor 1 (FGFR1) (Homo sapiens, UniProt P11362); test: kinase panel ([…] human kinases), […] inhibition at […]
Sequence of fibroblast growth factor receptor 1 (FGFR1) (P11362 22-822): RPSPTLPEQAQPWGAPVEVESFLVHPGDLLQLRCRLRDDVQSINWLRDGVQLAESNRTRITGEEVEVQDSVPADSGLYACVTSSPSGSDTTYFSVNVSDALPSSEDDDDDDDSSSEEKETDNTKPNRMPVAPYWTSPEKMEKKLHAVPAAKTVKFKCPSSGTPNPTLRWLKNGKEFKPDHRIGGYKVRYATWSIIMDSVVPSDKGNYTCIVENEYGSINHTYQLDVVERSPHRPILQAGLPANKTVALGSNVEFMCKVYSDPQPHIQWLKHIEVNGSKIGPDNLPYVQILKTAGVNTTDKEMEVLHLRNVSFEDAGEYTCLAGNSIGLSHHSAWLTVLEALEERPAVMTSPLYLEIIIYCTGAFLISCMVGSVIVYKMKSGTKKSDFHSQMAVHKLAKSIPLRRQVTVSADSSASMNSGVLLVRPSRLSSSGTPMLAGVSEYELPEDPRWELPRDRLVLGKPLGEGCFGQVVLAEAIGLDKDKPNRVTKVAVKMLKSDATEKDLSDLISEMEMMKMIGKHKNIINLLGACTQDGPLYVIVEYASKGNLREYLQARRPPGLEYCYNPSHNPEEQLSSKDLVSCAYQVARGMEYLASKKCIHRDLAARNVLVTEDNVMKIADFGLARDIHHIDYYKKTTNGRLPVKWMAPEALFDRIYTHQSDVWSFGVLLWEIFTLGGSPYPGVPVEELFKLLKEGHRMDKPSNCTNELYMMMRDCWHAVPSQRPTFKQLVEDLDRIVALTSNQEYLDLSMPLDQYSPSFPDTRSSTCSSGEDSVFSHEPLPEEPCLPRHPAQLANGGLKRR

Sequence of CDC-like kinase 2 (CLK2) (P49760 whole entry): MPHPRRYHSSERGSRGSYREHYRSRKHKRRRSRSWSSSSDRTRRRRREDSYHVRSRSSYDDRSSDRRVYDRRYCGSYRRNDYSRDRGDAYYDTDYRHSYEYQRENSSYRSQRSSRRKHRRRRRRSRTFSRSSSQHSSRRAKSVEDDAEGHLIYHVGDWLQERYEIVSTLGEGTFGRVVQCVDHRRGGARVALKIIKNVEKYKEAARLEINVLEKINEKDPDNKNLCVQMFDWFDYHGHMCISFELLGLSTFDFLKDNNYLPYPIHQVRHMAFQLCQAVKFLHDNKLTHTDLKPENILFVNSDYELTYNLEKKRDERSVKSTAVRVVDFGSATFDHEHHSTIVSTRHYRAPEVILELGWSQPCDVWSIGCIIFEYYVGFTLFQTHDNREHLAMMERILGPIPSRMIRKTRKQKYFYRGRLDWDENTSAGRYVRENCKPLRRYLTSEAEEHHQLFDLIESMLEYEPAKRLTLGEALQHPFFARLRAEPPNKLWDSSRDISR

- IC50 (DYRK1A): 949 nM
- % inhibition at 3 μM [1]: 54
- % inhibition at 3 μM (CDC-like kinase 2 (CLK2)): 89
- % inhibition at 3 μM [2]: 69
Compound: O=C1CC(c2c[nH]c3nccnc23)NN1 (stereo not shown) [compound 217908, NSC217908]

Source: paper PMC11536634, “Discovering a novel dual specificity tyrosine-phosphorylation-regulated kinase 1A (DYRK1A) inhibitor and its impact on tau phosphorylation and amyloid-β formation” (Journal of Enzyme Inhibition and Medicinal Chemistry, 2024)
